# In ChEMBL document CHEMBL4000199, “Synthesis and biological evaluation of novel hydroxybenzaldehyde-based kojic acid analogues as inhibitors of mushroom tyrosinase” (Bioorg Med Chem Lett, 2017):
# pIC50: −log10 of the molar value. Active and inactive are the calls of the source. The rule behind the calls is not given here.
# Biological target: T1, Tyrosinase (Agaricus bisporus, UniProt O42713)
# T1 sequence (O42713 whole entry): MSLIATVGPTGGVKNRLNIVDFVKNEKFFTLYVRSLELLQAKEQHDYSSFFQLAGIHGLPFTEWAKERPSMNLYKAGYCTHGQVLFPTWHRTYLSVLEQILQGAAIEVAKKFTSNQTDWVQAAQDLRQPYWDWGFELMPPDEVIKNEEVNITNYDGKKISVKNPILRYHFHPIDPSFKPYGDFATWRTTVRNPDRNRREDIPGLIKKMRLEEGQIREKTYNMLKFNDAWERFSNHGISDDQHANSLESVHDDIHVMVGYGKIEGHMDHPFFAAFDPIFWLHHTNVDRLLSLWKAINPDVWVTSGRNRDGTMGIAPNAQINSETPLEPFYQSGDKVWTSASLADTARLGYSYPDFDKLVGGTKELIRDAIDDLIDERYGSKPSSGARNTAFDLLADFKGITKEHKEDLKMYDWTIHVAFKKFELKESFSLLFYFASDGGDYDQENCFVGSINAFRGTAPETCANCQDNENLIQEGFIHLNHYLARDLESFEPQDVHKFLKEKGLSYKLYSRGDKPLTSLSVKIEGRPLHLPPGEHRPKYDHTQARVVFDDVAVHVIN
# Test: (§1) Inhibition of mushroom tyrosinase diphenolase activity assessed as reduction in dopachrome formation using L-DOPA as substrate preincubated for 20 mins followed by substrate addition measured for 1 min
row,pIC50,SMILES
1,4.76,COc1cc(/C=N/n2cnnc2SCc2cc(=O)c(O)co2)ccc1O
2,5.28,O=c1cc(CSc2nnc(-c3ccccc3Cl)n2/N=C/c2ccc(O)c(O)c2)occ1O
3,5.82,O=c1cc(CSc2nnc(-c3ccccc3)n2NCc2ccccc2O)occ1O
4,5.87,O=c1cc(CSc2nnc(-c3ccccc3)n2NCc2ccc(O)cc2O)occ1O
5,5.60,O=c1cc(CSc2nnc(-c3cccc(Cl)c3)n2NCc2ccccc2O)occ1O
6,5.77,O=c1cc(CSc2nnc(-c3ccc(Cl)cc3)n2NCc2ccccc2O)occ1O
7,5.42,Cc1ccc(-c2nnc(SCc3cc(=O)c(O)co3)n2NCc2ccccc2O)cc1

# Continued, compound first:
row,SMILES,pIC50
1,CCc1nnc(SCc2cc(=O)c(O)co2)n1NCc1ccccc1O,5.12
2,O=c1cc(CSc2nncn2/N=C/c2ccc(O)cc2O)occ1O,5.02
3,Cc1nnc(SCc2cc(=O)c(O)co2)n1NCc1ccccc1O,4.99
4,Cc1nnc(SCc2cc(=O)c(O)co2)n1NCc1cccc(O)c1,4.90
5,Cc1nnc(SCc2cc(=O)c(O)co2)n1NCc1ccc(O)cc1O,5.24
6,O=c1cc(CSc2nncn2NCc2ccccc2O)occ1O,5.23
7,O=c1cc(CSc2nncn2/N=C/c2ccc(O)cc2)occ1O,5.07

# Biological target: T2, Tyrosinase (Agaricus bisporus) (UniProt O42713)
# T2 sequence (whole entry): T1 sequence (O42713 whole entry)
# Test: as §1
row,inhibition,SMILES
1,Dose-dependent effect,O=c1cc(CSc2nnc(-c3ccccc3)n2NCc2ccc(O)cc2O)occ1O

# Biological target: T2, Tyrosinase (Agaricus bisporus)
# Test: Competitive inhibition of mushroom tyrosinase up to 1.2 uM using varying levels of L-DOPA as substrate preincubated for 20 mins followed by substrate addition measured for 1 min by Lineweaver-Burk plot analysis
row,inhibition,SMILES
1,Active,O=c1cc(CSc2nnc(-c3ccccc3)n2NCc2ccc(O)cc2O)occ1O

# Biological target: Mushroom tyrosinase (Agaricus bisporus, UniProt O42713+Q00024+C7FF04+C7FF05)
# Test: Inhibition of mushroom tyrosinase using L-tyrosine as substrate measured after 20 mins
row,IC50,SMILES
1,0.54 µM,O=c1cc(CSc2ccc(O)cc2)occ1O
